Assay results: PubChem BioAssay (NCI)
“And” between values parts separate entries of the source, which are not always exact repeats. Equal values may be shown once.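 Growth conditions: 96-well plates. Treatment: test compound, 48 hours, 5 concentrations. Analysis: linear interpolation between bracketing concentrations; unreached endpoints set to highest concentration. TGI denotes the concentration required for complete inhibition of growth.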

Key:
Test in all cases: NCI tumour cell line growth inhibition, 48 h
[1] = tested on: LXFL 529 NSCLC
[2] = tested on: HOP-18 NSCLC
[3] = tested on: XF 498 CNS
[4] = tested on: P388/ADR leukemia
[5] = tested on: SN12K1 renal
[6] = tested on: RXF-631 renal
[7] = tested on: P388 leukemia

What does the source list for `COc1cc(C2c3cc4c(cc3[C@@H](NCCN3CCOCC3)C3COC(=O)[C@H]23)OCO4)cc(OC)c1O` (stereo not given in full)?
TGI [1]: 34.1 µM and > 17.5 µM; TGI [2]: 32.9 µM and > 17.5 µM

How did the TGI [1] turn out when `Nc1nc(-c2ccco2)cc(-c2ccc(CO)o2)n1` was run?
Its TGI is greater than 100 µM.

What about the TGI [3] of the same molecule?
The TGI was greater than 100 µM.

What does the source list for `CC(C)NC(=O)OCc1c2c(n(C)c1COC(=O)NC(C)C)-c1ccccc1CC2`?
TGI [4]: 5.27 µM; TGI [5]: 24.4 µM; TGI [3]: 28.2 µM; TGI [2]: 13.9 µM

Which TGI [1] does the source give for `O=C1c2ccccc2N2Oc3ccccc3C12c1ccccc1` (stereo not given) here?
Its TGI is greater than 100 µM.

What about the TGI [2] of the same molecule?
The TGI was greater than 100 µM.

How did the TGI [1] turn out when `CCCCCCCCC/C=C1\CCC(CN(C)C)C1=O` (stereo not given) was run?
The TGI was 2.64 µM.

And the TGI [6]?
The TGI was 4.53 µM.

`O=c1cc(-c2cccnc2)[nH]c2cc3c(cc12)OCO3` was tested. Which TGI [1] did it give?
The TGI was 26.8 µM.

And the TGI [3]?
Its TGI is 72.7 µM.

And the TGI [2]?
The TGI was 84.1 µM.

For `CC(=O)Nc1cccc(N=NN(C)C)c1`, which TGI [4] is on record?
The TGI was greater than 100 µM.

And the TGI [5]?
Its TGI is greater than 100 µM.

What about the TGI [3] of the same molecule?
The TGI was greater than 100 µM.

And the TGI [7]?
The TGI was greater than 100 µM.

What about the TGI [2] of the same molecule?
The TGI was greater than 100 µM.
